The values that follow come from patent US20150290235A1, “USE OF SMALL MOLECULE INHIBITORS/ACTIVATORS IN COMBINATION WITH (DEOXY)NUCLEOSIDE OR (DEOXY)NUCLEOTIDE ANALOGS FOR TREATMENT OF CANCER AND HEMATOLOGICAL MALIGNANCIES OR VIRAL INFECTIONS” (AB SCIENCE, priority 2012, published 2015).

The test system of assay [1] is D17 osteosarcoma cells. As to the kind of experiment: Alamar Blue cell proliferation assay, D17. Format: cell-based, canine. On the technique in general: Resazurin is reduced to fluorescent resorufin, in cell work by metabolically active cells.
Assay [2] deals with Panc-1 pancreatic cancer cells. As to the kind of experiment: WST-1 proliferation assay, Panc-1. Format: cell-based, human. Conditions: Panc-1. On the procedure: (§1) Cancer cell lines: Pancreatic cancer cells lines (Mia Paca-2, Panc-1, BxPC-3 and Capan-2) were obtained from Dr. Juan Iovanna (Inserm, France). Cells were maintained in RPMI (BxPC-3, Capan-2) or DMEM (Mia Paca-2, Panc-1) medium containing glutamax-1 (Lonza), supplemented with 100 U/ml penicillin/100 μg/ml streptomycin, and 10% fetal calf serum (FCS) (AbCys, Lot S02823S1800). Expression of tyrosine kinases was determined by RT-PCR using Hot Star Taq (Qiagen GmbH, Hilden, Germany) in a 2720 Thermal Cycler (Applied Biosystems).
(§2) Treatment was started with the addition of the respective drug. […] After 72 hours WST-1 reagent was added and incubated with the cells for 4 hours before absorbance measurement at 450 nm in an EL800 Universal Microplate Reader (Bio-Tek Instruments Inc.). Media alone was used as a blank and proliferation in the absence of compounds served as positive control. Results are representative of three/four experiments.
(Tetrazolium assays rely on reduction of a dye to a coloured formazan, in cell work by metabolically active cells.)

In assay [3] the test system is Capan-2 pancreatic cancer cells. As to the kind of experiment: WST-1 proliferation assay, Capan-2. Format: cell-based, human. As for the experimental part:
as §1, §2

Assay [4] concerns C2 mastocytoma cells. The experiment in a line: Alamar Blue cell proliferation assay, C2. Format: cell-based, canine.
For assay [5], the system named is BxPC-3 pancreatic cancer cells. As to the kind of experiment: WST-1 proliferation assay, BxPC-3. Format: cell-based, human. As for the experimental part:
as §1, §2

Assay [6] has as its system canine cancer cell lines other than C2. As to the kind of experiment: cells. The following applies: Canis lupus familiaris, read-out: IC50 masitinib single agent.
The subject of assay [7] is CMT12 breast carcinoma cells. As to the kind of experiment: Alamar Blue cell proliferation assay, CMT12. Format: cell-based, canine.
Assay [8] has as its system Ba/F3 cells expressing PDGFR-α. Conditions: read-out: IC50, PDGF-BB-stimulated proliferation and PDGFR-α tyrosine phosphorylation; cited from earlier work.
The test system of assay [9] is Mia Paca-2 pancreatic cancer cells. The experiment in a line: WST-1 proliferation assay, Mia Paca-2. Format: cell-based, human. Conditions: for response to gemcitabine after pre-incubation with TKI: Mia Paca-2, gemcitabine-resistant, 10 μM TKI.
Assay [10] relates to CMT27 breast carcinoma cells. The experiment in a line: Alamar Blue cell proliferation assay, CMT27. Format: cell-based, canine.
Assay [11] deals with Mia Paca-2 pancreatic tumors. The experiment in a line: Nog-SCID mouse model of human pancreatic cancer. Format: in vivo, Nog-SCID mice. The following applies: day 56, 28 days of treatment; control 1023.
The test system of assay [12] is Ba/F3 cells expressing human or mouse wild-type c-Kit. The following applies: read-out: IC50, blocking stem cell factor-induced proliferation and c-Kit tyrosine phosphorylation; cited from earlier work.
Assay [13] deals with Abrams osteosarcoma cells. The experiment in a line: Alamar Blue cell proliferation assay, Abrams. Format: cell-based, canine.
In assay [14] the target is human deoxycytidine kinase (dCK) (Homo sapiens, UniProt P27707). The experiment in a line: dCK activity with UTP as phosphate donor (PK/LDH enzymatic-coupled assay). The following applies: nine dCK substrates.
The mark [15] stands for this setting: Canis lupus familiaris, 72 h, read-out: IC50 masitinib monotherapy.
The mark [16] stands for this setting: Canis lupus familiaris, Breast carcinoma cell, 72 h, read-out: IC50 masitinib monotherapy.

“And” between values parts separate entries of the source, which are not always exact repeats. Identical values can stand only once. “Also recorded” adds a separate entry of the source.

Chain of human deoxycytidine kinase (dCK) (P27707 whole entry): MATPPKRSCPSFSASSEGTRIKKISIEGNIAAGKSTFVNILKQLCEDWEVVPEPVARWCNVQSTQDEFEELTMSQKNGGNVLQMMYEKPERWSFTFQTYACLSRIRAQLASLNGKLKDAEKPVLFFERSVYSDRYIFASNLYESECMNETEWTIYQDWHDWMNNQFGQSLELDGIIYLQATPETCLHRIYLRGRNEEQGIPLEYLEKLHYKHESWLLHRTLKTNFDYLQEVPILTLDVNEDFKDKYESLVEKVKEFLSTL

As to `Cc1ccc(NC(=O)c2ccc(CN3CCN(C)CC3)cc2)cc1Nc1nc(-c2cccnc2)cs1` [Masitinib, 4-(4-methylpiperazin-1-ylmethyl)-N-[4-methyl-3-(4-pyridin-3ylthiazol-2-ylamino)phenyl]benzamide], the IC50 in [1] (setting [15]) is more than 10 µM; in [2] (Homo sapiens, 72 hours, 1% FCS, read-out: IC50, single agent) it was 5 to 10 µM; in assay [3] (Homo sapiens, Capan-2, 72 hours, 1% FCS, read-out: IC50, single agent), 5 to 10 µM; in assay [4] (setting [15]), 0.03 µM; in [5] (Homo sapiens, BxPC-3, 72 hours, 1% FCS, read-out: IC50, single agent), 5 to 10 µM; in [6], 5 to 20 µM. Moreover, the IC50 in assay [7] (setting [16]) is 8 µM; in assay [8], 0.3 ± 0.005 µM; in assay [9] (Homo sapiens, Mia Paca-2, 72 hours, 1% FCS, read-out: IC50, single agent), 5 to 10 µM; in assay [10] (setting [16]) it was 8 µM; in assay [12], 0.15 ± 0.08 µM; in assay [13] (setting [15]), more than 10 µM. For the same compound, the “Sensitization factor (maximum)” value in assay [1] (D17, gemcitabine with masitinib 5 μM) was 70; in assay [4] (C2, gemcitabine with masitinib 0.001 μM), 1; in assay [7] (CMT12, gemcitabine with masitinib 10 μM), more than 10; in assay [10] (CMT27, gemcitabine with masitinib 10 μM), more than 75; in assay [13] (Abrams, gemcitabine with masitinib 5 μM), 18. The “reduction in gemcitabine IC50” value in [2] (masitinib pre-treatment (10 μM)) is 10 fold; in [9] (Mia Paca-2, pre-treated with 5 and 10 μM masitinib (10 μM)), > 400 fold and 400 fold. Further, the “synergy of masitinib with gemcitabine” value was “no synergy” in [3] (Capan-2, gemcitabine-sensitive) and “no synergy” in assay [5] (BxPC-3, gemcitabine-sensitive). In addition, in assay [9], the “response to gemcitabine after pre-incubation with TKI” value (from here on “response to gemcitabine”) was “able to restore sensitivity to gemcitabine”. Moreover, in assay [11], the “Tumor Volume, Median” value turned out to be 865 mm^3.

As to `COc1cc(Nc2c(C#N)cnc3cc(OCCCN4CCN(C)CC4)c(OC)cc23)c(Cl)cc1Cl` [bosutinib, 4-[(2,4-dichloro-5-methoxyphenyl)amino]-6-methoxy-7-[3-(4-methylpiperazin-1-yl)propoxy]quinoline-3-carbonitrile], the “activation of dCK (substrate phosphorylation)” value (“activation of dCK” below) in [14] is recorded as “most active compounds; also recorded: activate dCK”.

With `CO[C@@H](C(=O)N1Cc2n[nH]c(NC(=O)c3ccc(N4CCN(C)CC4)cc3)c2C1)c1ccccc1` [danusertib], the “activation of dCK” value in assay [14] was “most active compounds; also recorded: activate dCK”.

Regarding `Cc1nc(Nc2ncc(C(=O)Nc3c(C)cccc3Cl)s2)cc(N2CCN(CCO)CC2)n1.O` [dasatinib, N-(2-chloro-6-methylphenyl)-2-[[6-[4-(2-hydroxyethyl)-1-piperazinyl]-2-methyl-4-pyrimidinyl]amino]-5-thiazole carboxamide monohydrate], the “response to gemcitabine” value in assay [9] is “did not result in an increased response”. Also, the “cell proliferation with TKI alone” value in assay [9] (Mia Paca-2, imatinib 10 μM, dasatinib >0.1 μM) is “partially inhibited”.

In the case of `C#Cc1cccc(Nc2ncnc3cc(OCCOC)c(OCCOC)cc23)c1` [erlotinib, N-(3-ethynylphenyl)-6,7-bis(2-methoxyethoxy) quinazolin-4-amine], the “activation of dCK” value in assay [14] is listed as “relatively little or no activity”.

As to `COc1cc(Nc2ncc(F)c(Nc3ccc4c(n3)N(COP(=O)(O)O)C(=O)C(C)(C)O4)n2)cc(OC)c1OC` [fostamatinib, [6-({5-fluoro-2-[(3,4,5-trimethoxyphenyl)amino]pyrimidin-4-yl}amino)-2,2-dimethyl-3-oxo-2,3-dihydro-4H-pyrido[3,2-b][1,4]oxazin-4-yl]methyl dihydrogen phosphate], the “activation of dCK” value in [14] is given as “relatively little or no activity; also recorded: did not activate dCK”.

Consider `Cc1ccc(NC(=O)c2ccc(CN3CCN(C)CC3)cc2)cc1Nc1nccc(-c2cccnc2)n1` [imatinib, 4-[(4-methylpiperazin-1-yl)methyl]-N-[4-methyl-3-[(4-pyridin-3-ylpyrimidin-2-yl)amino]phenyl]benzamide], for which the “response to gemcitabine” value in assay [9] is listed as “did not result in an increased response”.

Regarding `Cc1cn(-c2cc(NC(=O)c3ccc(C)c(Nc4nccc(-c5cccnc5)n4)c3)cc(C(F)(F)F)c2)cn1` [nilotinib, 4-methyl-N-[3-(4-methyl-1H-imidazol-1-yl)-5-(trifluoromethyl)phenyl]-3-[(4-pyridin-3-ylpyrimidin-2-yl)amino]benzamide], the “activation of dCK” value in [14] is “relatively little or no activity; also recorded: did not activate dCK”.

On to `CNC(=O)c1cc(Oc2ccc(NC(=O)Nc3ccc(Cl)c(C(F)(F)F)c3)cc2)ccn1` [sorafenib, 4-[4-[[4-chloro-3-(trifluoromethyl)phenyl]carbamoylamino]phenoxy]-N-methyl-pyridine-2-carboxamide], for which, in assay [14], the “activation of dCK” value was “relatively little or no activity; also recorded: did not activate dCK”.

Regarding `CCN(CC)CCNC(=O)c1c(C)[nH]c(/C=C2\C(=O)Nc3ccc(F)cc32)c1C` [sunitinib, N-(2-diethylaminoethyl)-5-[(Z)-(5-fluoro-2-oxo-1H-indol-3-ylidene)methyl]-2,4-dimethyl-1H-pyrrole-3-carboxamide], in assay [14], the “activation of dCK” value is “relatively little or no activity; also recorded: did not activate dCK”.

Turning to `Cc1[nH]c(/C=C2\C(=O)Nc3ccc(F)cc32)c(C)c1C(=O)NCCN1CCCC1` [toceranib, (Z)-5-[(5-Fluoro-2-oxo-1,2-dihydro-3H-indol-3-ylidene)methyl]-2,4-dimethyl-N-(2-pyrrolidin-1-ylethyl)-1H-pyrrole-3-carboxamide], the “activation of dCK” value in assay [14] was “relatively little or no activity; also recorded: did not activate dCK”.

For the compound `Cc1cc(Nc2cc(N3CCN(C)CC3)nc(Sc3ccc(NC(=O)C4CC4)cc3)n2)[nH]n1` [tozacertib], the “activation of dCK” value in assay [14] is on record as “most active compounds; also recorded: activate dCK”.
